Measurements taken from ChEMBL document CHEMBL5346941, “Design, synthesis and evaluation of novel monoamine oxidase B (MAO-B) inhibitors with improved pharmacokinetic properties for Parkinson's disease” (Eur J Med Chem, 2023).
Active and inactive are the calls of the source. The rule behind the calls is not given here.

Tests used:
Mus musculus = assay: In vivo inhibition of MAO-B in ICR mouse assessed as reduction in enzyme activity in brain at 2 mg/kg, ip administered once for 30 to 60 mins by amplex red based assay; type: functional, organism-based; conditions: time 30-60 min
[1] = Ratio of drug concentration in Sprague-Dawley brain to plasma at 5 mg/kg, ip measured after 120 mins by LC-MS/MS analysis; type: ADME, organism-based; conditions: rat, read-out: BPR
[2] = Elimination half life in fasted ICR mouse at 2 mg/kg, iv measured for 24 hrs; type: ADME, organism-based; conditions: in vivo, read-out: beta t1/2 (converted)
[3] = molecular target: T1, Amine oxidase [flavin-containing] B (Homo sapiens, UniProt P27338); assay: Inhibition of recombinant human MAO-B expressed in Sf9 cells using p-tyramine as substrate preincubated for 15 mins followed by substrate addition and measured after 60 mins by luciferin based luminescence analysis
T1 sequence (P27338 whole entry): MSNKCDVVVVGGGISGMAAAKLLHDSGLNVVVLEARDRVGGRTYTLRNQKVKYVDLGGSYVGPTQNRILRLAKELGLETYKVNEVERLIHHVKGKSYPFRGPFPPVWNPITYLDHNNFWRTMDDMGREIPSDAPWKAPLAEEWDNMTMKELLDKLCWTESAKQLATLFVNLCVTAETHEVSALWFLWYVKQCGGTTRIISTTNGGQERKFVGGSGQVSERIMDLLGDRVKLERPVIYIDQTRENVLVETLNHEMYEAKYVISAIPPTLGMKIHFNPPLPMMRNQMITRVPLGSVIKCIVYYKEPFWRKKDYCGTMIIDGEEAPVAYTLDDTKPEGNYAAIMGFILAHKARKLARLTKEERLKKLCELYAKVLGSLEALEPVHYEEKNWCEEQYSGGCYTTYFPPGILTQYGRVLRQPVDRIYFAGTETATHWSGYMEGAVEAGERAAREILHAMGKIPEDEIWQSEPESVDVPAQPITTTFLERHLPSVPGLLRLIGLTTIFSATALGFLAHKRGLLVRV

[4] = Metabolic stability in dog liver microsomes assessed as half life at 1 uM incubated for 60 mins in presence of NADPH by LC-MS/MS analysis; type: ADME, Canis lupus familiaris, Microsome
[5] = Metabolic stability in dog liver microsomes assessed as intrinsic clearance at 1 uM incubated for 60 mins in presence of NADPH by LC-MS/MS analysis; type: ADME, Canis lupus familiaris, Microsome; conditions: read-out: CLH
[6] = Metabolic stability in mouse liver microsomes assessed as half life at 1 uM incubated for 60 mins in presence of NADPH by LC-MS/MS analysis; type: ADME, Microsome
[7] = AUC (0 to t) in fasted ICR mouse at 2 mg/kg, iv measured for 24 hrs; type: ADME, organism-based; parameters: dose 2 mg/kg, time 24 hrs, route iv; conditions: in vivo

Kp at 2 h [1]: 15.5 | half-life [2]: 3.37 h | IC50 [3]: 37 nM | half-life at 1 µM [4]: 2.45 h | CLint scaled at 1 µM [5]: 7.5 mL/min/kg | half-life at 1 µM [6]: 2.82 h | AUC(0-t) at 24 h [7]: 2680 ng·h/mL
SMILES: NC(=O)[C@@H]1C[C@H](F)CN1Cc1ccc2oc(-c3ccc(F)cc3)cc2c1
inhibition (Mus musculus): Active
